Earlier results, collected in patent publication EP0156318A2, “C-terminal amide cyclic renin inhibitors containing peptide isosteres” (Merck & Co., Inc., priority 1984, dated 1985).
Square brackets hold non-standard residues; d marks the D form. Peptide text beside a SMILES is read from it. * marks the point of attachment. Sta = CC(C)C[C@H](N)[C@@H](O)CC(=O)O; Isovaleryl = CC(C)CC(=O)*

Test system: hog renin
Conditions: after the injection of hog renin into nephrectomized rats

CC(C)CC(=O)N[C@H](C(=O)N[C@H](C(=O)N[C@@H](CC(C)C)[C@@H](O)CC(=O)N[C@@H](C)C(=O)N[C@@H](CC(C)C)[C@@H](O)CC(=O)O)C(C)C)C(C)C [pepstatin] (Isovaleryl-VV[Sta]A[Sta]-OH)
blood pressure in vivo: reduce blood pressure
